Here are results for one compound from US11760978B2, “Cell culture medium for culturing organoid, culture method, and organoid” (KEIO UNIVERSITY, priority 2016, dated 2023).

The test system of the series is epithelial tumor cells derived from colon tumor. Briefly: Subculturing (long-term culturing) of epithelial tumor cells derived from colon tumor, Example 4. The series is classed as cell-based, human. The note with it: SB202190 10 μM in medium, oxygen 20%. The protocol:
“WIFNRA medium”, “W^AfmIFNRA medium” and “WENRAS” medium were prepared using the same method as in section (2) of Example 4. In addition, recombinant human R-spondin 1 (R&D Systems) was added to commercially available Advanced DMEM/F-12 medium (Thermo Fisher Scientific) to a final concentration of 1 μg/mL followed by the addition noggin (Peprotech) to a final concentration of 100 ng/mL and A83-01 (Tocris) to a final concentration of 500 nM. Moreover, a medium was prepared in which the Wnt3a-afamin complex prepared in (1) above was added to a final concentration 300 ng/mL, IGF1 (Biolegend) was added to a final concentration of 100 ng/mL, FGF2 (Peprotech) was added to a final concentration of 50 ng/mL, and […] (Sigma-Aldrich) was added to a final concentration of 10 μM (and the resulting medium may be referred to as “W^AfmIFNRAS medium”).
Epithelial tumor cells were obtained using the same method as in section (2) of Example 1. Next, the epithelial tumor cells were seeded in a 48-well plate together with 25 μL of Matrigel® (BD Bioscience). The “WIFNRA medium”, “W^MmIFNRA medium”, “WENRAS medium” and “WAfmIFNRAS medium” prepared in (2) above were added in 250 μL aliquots to the wells seeded with epithelial tumor cells followed by culturing at 37° C. and oxygen concentration of 20%. The medium was replaced every two days from the start of culturing. […]

Consider `Oc1ccc(-c2nc(-c3ccncc3)c(-c3ccc(F)cc3)[nH]2)cc1` [SB202190, 4-(4-fluorophenyl)-2-(4-hydroxyphenyl)-5-(4-pyridyl)-1H-imidazole], for which the “toxicity to epithelial tumor cells” value is “exhibited toxicity”.
